We go through five compounds from patent US12234229B2, “Sphingosine kinase inhibitor amidoxime prodrugs” (University of Virginia Patent Foundation, priority 2016, dated 2025).

Data set [1] relates to sphingosine kinase type 2 (SphK2). Description: Blood sphingosine 1-phosphate (S1P) in mice after oral dosing, LC-MS-MS. Format: in vivo. The following applies: C57Bl/6 mice, oral gavage 20 mg/kg, blood drawn immediately, at 2 h, 6 and 24 h, FIG. 1A. How it is done: FIGS. 1A-1B. Four C57Bl/6 mice were dosed by oral gavage with 20 mg/kg of Compound 6. At the indicated times, blood was drawn, whole prepared for analysis, and the amount sphingosine 1-phosphate (S1P) was quantified by LC-MS-MS (FIG. 1A). The rise in S1P is indicative of inhibition of sphingosine kinase type 2 (SphK2).
Four C57Bl/6 mice were dosed by oral gavage with 20 mg/kg of Compound 6 (Example 113). Blood was drawn immediately, at 2h, 6, and 24 h after administration, whole prepared for analysis, and the amount of sphingosine 1-phosphate (S1P) was quantified by LC-MS-MS, as shown in FIG. 1A.

Data set [2] addresses T1, human sphingosine kinase type 2 (hSPHK2) (Homo sapiens, UniProt Q9NRA0).
T1 construct: purchased; host or cells: Sf9 insect cells (baculovirus)
T1 sequence (Q9NRA0 1-654): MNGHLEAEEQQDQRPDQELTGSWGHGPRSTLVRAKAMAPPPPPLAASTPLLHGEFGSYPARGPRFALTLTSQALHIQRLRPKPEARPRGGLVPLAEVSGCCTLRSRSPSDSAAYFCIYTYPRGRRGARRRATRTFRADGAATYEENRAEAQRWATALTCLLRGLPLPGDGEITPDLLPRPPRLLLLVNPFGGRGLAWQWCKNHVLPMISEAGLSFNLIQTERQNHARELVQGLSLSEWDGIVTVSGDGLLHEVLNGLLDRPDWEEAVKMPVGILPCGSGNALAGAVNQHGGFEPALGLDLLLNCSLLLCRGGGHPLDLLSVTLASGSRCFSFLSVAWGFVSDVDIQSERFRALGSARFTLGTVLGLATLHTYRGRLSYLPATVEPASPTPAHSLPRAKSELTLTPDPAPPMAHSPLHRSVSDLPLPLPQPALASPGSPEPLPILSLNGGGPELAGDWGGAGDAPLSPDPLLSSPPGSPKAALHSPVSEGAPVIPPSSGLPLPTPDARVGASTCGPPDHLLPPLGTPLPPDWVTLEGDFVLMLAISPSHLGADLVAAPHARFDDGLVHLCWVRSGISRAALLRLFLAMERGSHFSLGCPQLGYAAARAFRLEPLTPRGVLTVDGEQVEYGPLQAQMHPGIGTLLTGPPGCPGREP
In words: Sphingosine kinase assay, recombinant human SPHK2 ([32P]S1P product, scintillation counting). Format: biochemical. The following applies: read-out: activity hSPHK2 (range estimates of KI values). The procedure:
(§1) Recombinant baculovirus encoding human sphingosine kinase type 1 (SPHK1) was used to infect Sf9 insect cells and after 2-5 days, cleared lysates were prepared and used without further purification. Human SPHK2, which was partially purified from baculovirus-infected Sf9 cell lysates, was purchased from a commercial source. Sphingosine kinase assays were performed using standard protocols. Product [^32P]S1P was recovered by binding to cation exchange paper and quantified by scintillation counting.

The target in data set [3] is T2, human sphingosine kinase type 1 (hSPHK1) (Homo sapiens, UniProt Q9NYA1).
T2 construct: made in house; host or cells: Sf9 insect cells (baculovirus)
In words: Sphingosine kinase assay, recombinant human SPHK1 ([32P]S1P product, scintillation counting). To be noted: read-out: activity hSPHK1 (range estimates of KI values). The format is biochemical. How it is done: as §1

For data set [4] the following is noted: patients, 1-yr trial; cited from earlier work.

Where only a bound is given, the exact number is not on record here.

T2 sequence (Q9NYA1 whole entry): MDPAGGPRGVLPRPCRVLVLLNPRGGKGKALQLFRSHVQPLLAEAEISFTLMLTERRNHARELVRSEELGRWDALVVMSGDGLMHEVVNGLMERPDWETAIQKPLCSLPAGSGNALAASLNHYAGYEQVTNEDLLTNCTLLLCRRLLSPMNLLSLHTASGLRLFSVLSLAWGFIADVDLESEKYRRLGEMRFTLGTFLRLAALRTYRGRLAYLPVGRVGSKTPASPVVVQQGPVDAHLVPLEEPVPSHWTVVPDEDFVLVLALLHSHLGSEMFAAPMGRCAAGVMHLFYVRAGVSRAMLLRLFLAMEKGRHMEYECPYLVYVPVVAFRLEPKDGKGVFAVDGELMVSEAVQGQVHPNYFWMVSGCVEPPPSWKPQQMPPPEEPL

`CCCCCCCCOc1ccc(-c2noc([C@@H]3[C@@H](O)CCN3/C(N)=N/O)n2)cc1C(F)(F)F` [Compound 6, (2S,3S)—N,3-dihydroxy-2-(3-(4-(octyloxy)-3-(trifluoromethyl)phenyl)-1,2,4-oxadiazol-5-yl)pyrrolidine-1-carboximidamide]: the “amount of sphingosine 1-phosphate (S1P) in blood” value in data set [1] is “rise in S1P”.

Regarding `CCCCCCCCOc1ccc(-c2noc([C@@H]3[C@@H](O)CCN3C(=N)N)n2)cc1C(F)(F)F` [Compound 6A, amino((2S,3S)-3-hydroxy-2-(3-(4-(octyloxy)-3-(trifluoromethyl)phenyl)-1,2,4-oxadiazol-5-yl)pyrrolidin-1-yl)methaniminium chloride], the inhibition constant (Ki) in data set [2] was less than 1 µM.

Turning to `CCCCCCCCCn1ccc2cc(-c3noc([C@@H]4CCCN4C(=N)N)n3)ccc21` [Compound 17A, (S)-amino(2-(3-(1-nonyl-1H-indol-5-yl)-1,2,4-oxadiazol-5-yl)pyrrolidin-1-yl)methaniminium chloride], in data set [2], the Ki is less than 1 µM.

As to `C=COCc1ccc(-c2noc([C@@H]3CCCN3C(=N)N)n2)cc1C(F)(F)F` [Compound 77A], the Ki in data set [3] and in data set [2] was more than 10 µM throughout.

On to `CCCCCCCCc1ccc(CCC(N)(CO)CO)cc1` [fingolimod, 2-amino-2-[2-(4-octylphenyl)ethyl] propane 1,3-diol], for which, in data set [4], the “hypertension (blood pressure rise)” value is reported as 2-3 mmHg.

As a reminder, the Ki is the dissociation constant of the complex between target and ligand, obtained from inhibition or displacement.
